Assay results reported in patent publication US7060678B2, “Peptides comprising furanoid sugar amino acids for the treatment of cancer” (Dabur Research Foundation, priority 2003, dated 2006).
Read-outs that look alike come from different tables or passages of the source. Starred links: 1 amine or outer side, 2 acyl side, 3 side chain; linkers in the order of their positions; H or OH if unused. Non-standard residues stand in square brackets, D forms with d. Residues, ends and D or L forms follow the SMILES beside them. 2Furoyl(5-aminomethyl) = O=C(c1ccc(CN[*:1])o1)[*:2]; X2 = O=C([C@@H]1CC[C@H](CN[*:1])O1)[*:2]

What was measured:
[1] = system: MiaPaCa.2 (human pancreas); assay: MTT cytotoxicity assay, MiaPaCa.2 cells; assay type: cell-based; settings: human, 48 hours
Source text: (§1) The following cell lines were used.

[2] = system: ECV-304 (endothelial); settings: ECV-304 cells, 48 hours, NA = Not Active
Source text: Although sterile phosphate buffered saline was used to prepare each stock solution for the testing described in the following example, other diluents may be used such as buffered saline, isotonic NaCl, Ringer's solution, water, distilled water, polyethylene glycol (neat or in water), Tween in water, dimethylsulfoxide up to 50% in water, propylene glycol (neat or in water), phosphate buffered saline, balanced salt solution, glycerol, and other conventional fluids that are suitable for parentral administration. To obtain a pH in the range of approximately 3.5 to 7.0, for each stock solution, the pH can be adjusted by using 1N HCl for lowering the pH or 1N NaOH for raising the pH, although other buffers such as citrate buffer, phosphate buffer and the like or other conventional agents for adjusting the pH can be used.
The MTT assay is based on the principle of uptake of MTT [3-[4,5-dimethylthiazol-2-yl]-2,5-diphenyl tetrazolium bromide], a tetrazolium salt, by the metabolically active cells where it is metabolized by active mitochondria into a blue colored formazan product which can be read spectrophotometrically. […] The formazan crystals formed inside the cells were dissolved with a detergent comprising of 10% Sodium dodecyl sulfate and 0.01 N HCl and optical density read on a multi-scan ELISA reader. The optical density was directly proportional to the number of proliferating and metabolically active cells. The following cell lines were used. PA1(human ovary), PTC (colon), HeP-2 (larynx), MiaPaCa.2 (human pancreas), KB (oral), ECV-304 (endothelial) and HeP-G2 (liver).

[3] = system: HeP-2 (larynx); assay: MTT cytotoxicity assay, HeP-2 cells; assay type: cell-based, human; settings: human, 48 hours
Source text: as §1

[4] = system: KB (oral); assay: MTT cytotoxicity assay, KB cells; assay type: cell-based, human; settings: human, 48 hours
Source text: as §1

[5] = system: PTC (colon); assay: MTT cytotoxicity assay, PTC cells; assay type: cell-based, human; settings: human, 48 hours
Source text: as §1

[6] = system: PA1 (human ovary); assay: MTT cytotoxicity assay, PA1 cells; assay type: cell-based; settings: human, 48 hours
Source text: as §1

[7] = system: HeP-G2 (liver); assay: MTT cytotoxicity assay, HeP-G2 cells; assay type: cell-based, human; settings: human, 48 hours
Source text: as §1

CSCC[C@H](N)C(=O)NCc1ccc(C(=O)N[C@@H](Cc2ccc(O)cc2)C(=O)N[C@@H](CC(C)C)C(=O)O)o1 [SEQ ID NO: 14, Met-Saa1-Tyr-Leu]
Percent Cytotoxicity ([1]; 1 nM): 17.0 ± 1.7% | Percent Cytotoxicity ([1]; 10 nM): 13.9 ± 1.1% | Percent Cytotoxicity ([1]; 100 nM): 7.0 ± 0.3% | Percent Cytotoxicity ([2]; peptide 1 nM): 12.7 ± 0.4% | Percent Cytotoxicity ([2]; peptide 10 nM): 13.0 ± 0.6% | Percent Cytotoxicity ([2]; peptide 100 nM): 6.0 ± 0.0% | Percent Cytotoxicity ([3]; 1 nM): 11.0 ± 1.9% | Percent Cytotoxicity ([3]; 10 nM): 10.6 ± 1.1% | Percent Cytotoxicity ([3]; 100 nM): 6.0 ± 0.8% | Percent Cytotoxicity ([4]; 1 nM): 14.5 ± 0.4% | Percent Cytotoxicity ([4]; 10 nM): 12.9 ± 0.5% | Percent Cytotoxicity ([5]; 1 nM): 28.9 ± 2.2% | Percent Cytotoxicity ([5]; 10 nM): 26.9 ± 2.9% | Percent Cytotoxicity ([5]; 100 nM): 21.8 ± 1.0% | Percent Cytotoxicity ([5]; 1 μM): 15.0 ± 0.5%

CSCC[C@H](NC(=O)[C@@H](N)CC(C)C)C(=O)NCc1ccc(C(=O)N[C@@H](Cc2ccc(O)cc2)C(=O)N[C@@H](CC(C)C)C(=O)N[C@@H](CCCCN)C(=O)O)o1 [SEQ ID NO: 18, Leu-Met-Saa1-Tyr-Leu-Lys] (H-LM[2Furoyl(5-aminomethyl)]YLK-OH)
Percent Cytotoxicity ([1]; 1 nM): 24.8 ± 2.0% | Percent Cytotoxicity ([1]; 10 nM): 21.0 ± 2.6% | Percent Cytotoxicity ([1]; 100 nM): 18.5 ± 0.6% | Percent Cytotoxicity ([1]; 1 μM): 15.0 ± 0.6% | Percent Cytotoxicity ([6]; 1 nM): 18.3 ± 1.8% | Percent Cytotoxicity ([6]; 10 nM): 22.8 ± 2.9% | Percent Cytotoxicity ([6]; 100 nM): 21.8 ± 2.1% | Percent Cytotoxicity ([6]; 1 μM): 20.3 ± 2.6% | Percent Cytotoxicity ([2]; peptide 1 nM): 11.0 ± 0.6% | Percent Cytotoxicity ([3]; 1 nM): 47.0 ± 4.8% | Percent Cytotoxicity ([3]; 10 nM): 38.3 ± 2.0% | Percent Cytotoxicity ([3]; 100 nM): 35.8 ± 2.4% | Percent Cytotoxicity ([3]; 1 μM): 32.9 ± 2.6% | Percent Cytotoxicity ([4]; 1 nM): 15.9 ± 1.0% | Percent Cytotoxicity ([4]; 10 nM): 12.0 ± 0.3% | Percent Cytotoxicity ([4]; 100 nM): 14.0 ± 1.0% | Percent Cytotoxicity ([4]; 1 μM): 9.3 ± 0.4% | Percent Cytotoxicity ([5]; 1 nM): 19.0 ± 1.6% | Percent Cytotoxicity ([5]; 10 nM): 28.4 ± 1.0% | Percent Cytotoxicity ([5]; 100 nM): 23.9 ± 2.9% | Percent Cytotoxicity ([5]; 1 μM): 21.7 ± 1.5%

CSCC[C@H](NC(=O)[C@@H](N)CC(C)C)C(=O)N[C@@H](Cc1ccc(O)cc1)C(=O)NC[C@H]1CC[C@@H](C(=O)N[C@@H](Cc2ccc(O)cc2)C(=O)N[C@@H](CC(C)C)C(=O)N[C@@H](CCCCN)C(=O)O)O1 [SEQ ID NO: 13, Leu-Met-Tyr-Saa4-Tyr-Leu-Lys] (H-LMY[X2]YLK-OH)
Percent Cytotoxicity ([1]; 1 nM): 17.5 ± 1.9% | Percent Cytotoxicity ([1]; 10 nM): 14.0 ± 0.6% | Percent Cytotoxicity ([1]; 100 nM): 8.0 ± 0.6% | Percent Cytotoxicity ([6]; 1 nM): 44.0 ± 3.9% | Percent Cytotoxicity ([6]; 10 nM): 41.0 ± 4.2% | Percent Cytotoxicity ([6]; 100 nM): 38.0 ± 3.9% | Percent Cytotoxicity ([6]; 1 μM): 35.5 ± 2.4% | Percent Cytotoxicity ([2]; peptide 1 nM): 23.0 ± 1.6% | Percent Cytotoxicity ([2]; peptide 10 nM): 21.0 ± 2.6% | Percent Cytotoxicity ([2]; peptide 100 nM): 18.0 ± 1.6% | Percent Cytotoxicity ([2]; peptide 1 μM): 12.1 ± 1.3% | Percent Cytotoxicity ([3]; 1 nM): 23.0 ± 2.1% | Percent Cytotoxicity ([3]; 10 nM): 21.8 ± 1.8% | Percent Cytotoxicity ([3]; 100 nM): 17.9 ± 1.9% | Percent Cytotoxicity ([3]; 1 μM): 16.4 ± 0.6% | Percent Cytotoxicity ([4]; 1 nM): 30.0 ± 2.8% | Percent Cytotoxicity ([4]; 10 nM): 27.9 ± 2.1% | Percent Cytotoxicity ([4]; 100 nM): 26.9 ± 2.1% | Percent Cytotoxicity ([4]; 1 μM): 21.4 ± 2.1% | Percent Cytotoxicity ([5]; 1 nM): 28.5 ± 2.0% | Percent Cytotoxicity ([5]; 10 nM): 26.0 ± 2.9% | Percent Cytotoxicity ([5]; 100 nM): 22.8 ± 2.1% | Percent Cytotoxicity ([5]; 1 μM): 20.8 ± 1.8%

CSCC[C@H](N)C(=O)NCC1CCC(C(=O)N[C@@H](Cc2ccc(O)cc2)C(=O)N[C@@H](CC(C)C)C(=O)O)O1 (stereo partly shown) [SEQ ID NO: 16, Met-Saa3-Tyr-Leu]
Percent Cytotoxicity ([6]; 1 nM): 24.0 ± 2.1% | Percent Cytotoxicity ([6]; 10 nM): 22.9 ± 2.1% | Percent Cytotoxicity ([6]; 100 nM): 19.0 ± 1.0% | Percent Cytotoxicity ([6]; 1 μM): 16.8 ± 1.8% | Percent Cytotoxicity ([7]; 1 nM): 11.0 ± 1.1% | Percent Cytotoxicity ([7]; 10 nM): 12.8 ± 0.7% | Percent Cytotoxicity ([7]; 100 nM): 11.4 ± 0.7% | Percent Cytotoxicity ([7]; 1 μM): 9.8 ± 0.7% | Percent Cytotoxicity ([2]; peptide 1 nM): 9.3 ± 0.6% | Percent Cytotoxicity ([2]; peptide 10 nM): 7.9 ± 0.1% | Percent Cytotoxicity ([3]; 1 nM): 16.5 ± 1.6% | Percent Cytotoxicity ([3]; 10 nM): 19.2 ± 1.6% | Percent Cytotoxicity ([3]; 100 nM): 12.6 ± 0.5% | Percent Cytotoxicity ([3]; 1 μM): 10.9 ± 1.1% | Percent Cytotoxicity ([4]; 1 nM): 9.3 ± 0.3% | Percent Cytotoxicity ([4]; 10 nM): 9.7 ± 0.4% | Percent Cytotoxicity ([4]; 100 nM): 3.2 ± 0.1%
